Data on 16 compounds can be found in ChEMBL document CHEMBL5532639, “Heterocyclic pyrimidine derivatives as promising antibacterial agents” (Eur J Med Chem, 2023).

Structures are written as SMILES. Converted amounts (≈) assume the structure as drawn.

One experiment relates to Streptococcus pyogenes. Description: Antibacterial activity against Streptococcus pyogenes assessed as inhibition of microbial growth by broth micro-dilution method. The experiment is classed as functional. In general terms: Broth dilution looks for growth in wells or tubes with falling amounts of substance.
The subject of experiment [1] is Escherichia coli. Put plainly: Antibacterial activity against Escherichia coli assessed as inhibition of microbial growth by broth micro-dilution method. In kind it is functional.
Experiment [2] concerns Pseudomonas aeruginosa. Put plainly: Antibacterial activity against Pseudomonas aeruginosa assessed as inhibition of microbial growth by broth micro-dilution method. In kind it is functional.
In experiment [3] the test system is Staphylococcus aureus. Description: Antibacterial activity against Staphylococcus aureus assessed as inhibition of microbial growth by broth micro-dilution method. The experiment is classed as functional.
The test system of experiment [4] is Escherichia coli. Put plainly: Antimicrobial activity against Escherichia coli RCMB 010052 assessed as bacterial growth inhibition by measuring zone of inhibition at 50 ug/ml by agar cup diffusion assay. The experiment is classed as functional. To be noted: read-out: IZ.
The next experiment concerns Streptococcus pneumoniae. Description: Antimicrobial activity against Streptococcus […] assessed as bacterial growth inhibition by measuring zone of inhibition at 50 ug/ml by agar cup diffusion assay. In kind it is functional. To be noted: read-out: IZ.
Experiment [5] relates to Bacillus subtilis. Put plainly: Antimicrobial activity against Bacillus subtilis RCMB 010069 assessed as bacterial growth inhibition by measuring zone of inhibition at 50 ug/ml by agar cup diffusion assay. In kind it is functional. To be noted: read-out: IZ.
For another experiment, the system named is Serratia marcescens. Put plainly: Antibacterial activity against Serratia marcescens assessed as zone of inhibition at 20 microg/ml. In kind it is functional. To be noted: read-out: IZ.
Experiment [6] concerns Bacillus subtilis. Description: Antibacterial activity against Bacillus subtilis assessed as zone of inhibition at 20 mg/ml. The experiment is classed as functional. To be noted: read-out: IZ.
The subject of experiment [7] is Staphylococcus aureus. Description: Antibacterial activity against Staphylococcus aureus assessed as zone of inhibition at 20 mg/ml. The experiment is classed as functional. To be noted: read-out: IZ.
Another experiment has as its system Sarcina. Put plainly: Antibacterial activity against Sarcina assessed as zone of inhibition at 20 mg/ml. In kind it is functional. To be noted: read-out: IZ.
In experiment [8] the test system is Escherichia coli. Description: Antibacterial activity against Escherichia coli assessed as zone of inhibition at 20 mg/ml. The experiment is classed as functional. To be noted: read-out: IZ.
In experiment [9] the test system is Bacillus subtilis. Description: Antibacterial activity against Bacillus subtilis ATCC 465 assessed as reduction in bacterial growth measured after 24 hrs by Mueller-Hinton broth assay. The experiment is classed as functional.
The subject of experiment [10] is Staphylococcus aureus. Put plainly: microbe, parasite or virus in culture. To be noted: ATCC 25923, 24 h.
Description: Antibacterial activity against Staphylococcus aureus ATCC 25923 assessed as reduction in bacterial growth measured after 24 hrs by Mueller-Hinton broth assay
Experiment [11] deals with Escherichia coli. Description: Antibacterial activity against Escherichia coli ATCC 25922 assessed as bacterial growth inhibition. In kind it is functional.
Experiment [12] has as its system Bacillus subtilis. Put plainly: Antibacterial activity against Bacillus subtilis 6633 assessed as reduction in bacterial growth. The experiment is classed as functional.
The test system of experiment [13] is Staphylococcus aureus. Description: Antibacterial activity against Staphylococcus aureus ATCC 3750 assessed as reduction in bacterial growth. The experiment is classed as functional.
The test system of another experiment is Salmonella typhimurium. Put plainly: Antibacterial activity against Salmonella typhimurium DT104 assessed as reduction in bacterial growth. In kind it is functional, Salmonella enterica subsp. enterica serovar Typhimurium. To be noted: Salmonella enterica.
The test system of experiment [14] is Staphylococcus aureus. Put plainly: Antibacterial activity against Staphylococcus aureus assessed as bacterial growth inhibition by measuring zone of inhibition at 50 ug/ml by agar cup diffusion assay. The experiment is classed as functional. To be noted: read-out: IZ.
In experiment [15] the test system is Escherichia coli. Description: Antibacterial activity against Escherichia coli assessed as bacterial growth inhibition by measuring zone of inhibition at 50 ug/ml by agar cup diffusion assay. The experiment is classed as functional. To be noted: read-out: IZ.
Experiment [16] has as its system Pseudomonas aeruginosa. Description: Antibacterial activity against Pseudomonas aeruginosa assessed as reduction in microbial growth by measuring zone of inhibition. The experiment is classed as functional.
The test system of experiment [17] is Staphylococcus aureus. Put plainly: Antibacterial activity against Staphylococcus aureus assessed as reduction in microbial growth by measuring zone of inhibition. The experiment is classed as functional.
Experiment [18] relates to Bacillus subtilis. Put plainly: Antibacterial activity against Bacillus subtilis assessed as reduction in microbial growth by measuring zone of inhibition. In kind it is functional.
In experiment [19] the test system is Escherichia coli. Put plainly: Antibacterial activity against Escherichia coli assessed as reduction in microbial growth by measuring zone of inhibition. In kind it is functional.

Regarding `COc1ccc(-c2cc(-c3ccc(Oc4ccccc4)cc3)nc(SCC(=O)Nc3nc4ccc(OC)cc4s3)n2)cc1`, the MIC was 50 µg/mL with Streptococcus pyogenes, 25 µg/mL with Escherichia coli [1], 25 µg/mL in the experiment with Pseudomonas aeruginosa [2] and 50 µg/mL in the experiment with Staphylococcus aureus [3].
As for `O=C1OC(c2ccc(C(=O)O)cc2)N=C1/C=C/c1ccc(C(=O)c2cccs2)cc1` (stereo not given), the zone of inhibition at 50 µg/mL with Escherichia coli [4] was found to be 17.9 mm; with Streptococcus pneumoniae, 18.6 mm; with Bacillus subtilis [5], 22.3 mm.
For `CSc1c(C#N)c(N)nc2c(/N=N/c3ccc(S(=O)(=O)Nc4ncccn4)cc3)c(=O)[nH]n12`, the zone of inhibition at 20 µg/mL in the experiment with Serratia marcescens was found to be 15 mm. Also, the zone of inhibition at 20000 µg/mL in the experiment with Bacillus subtilis [6] was 9 mm; with Staphylococcus aureus [7] it was 9 mm; in the experiment with Sarcina, 12 mm; in the experiment with Escherichia coli [8], 15 mm.
Consider `CSc1c(C#N)c(N)nc2c(/N=N/c3ccc(S(=O)(=O)Nc4ncc(C)cn4)cc3)c(=O)[nH]n12`, for which the zone of inhibition at 20 µg/mL in the experiment on Serratia marcescens is 15 mm. The zone of inhibition at 20000 µg/mL turned out to be 9 mm in the experiment on Bacillus subtilis [6], 9 mm in the experiment with Staphylococcus aureus [7], 12 mm with Sarcina and 12 mm with Escherichia coli [8].
For `N#Cc1nc2[nH]c(=O)[nH]c(=O)c2c(-c2ccccc2)c1N`, the MIC in the experiment on Bacillus subtilis [9] is 2 µg/mL (≈ 7.16 µM); against Staphylococcus aureus [10] it was 8 µg/mL (≈ 28.6 µM).
On to `COc1ccc(-c2c(C(=O)c3ccc(C(=O)O)cc3)c(N)nc3nc4ccccc4n23)cc1`, for which the zone of inhibition at 50 µg/mL with Escherichia coli [4] was determined as 17.9 mm; in the experiment on Streptococcus pneumoniae it was 19.3 mm; in the experiment with Bacillus subtilis [5], 24.7 mm.
Regarding `Cc1nc2scc(-c3ccco3)c2c(=O)n1NC(=O)c1ccc(Cl)cc1Cl`, the MIC came to 6 µg/mL (≈ 14.3 µM) in the experiment with Escherichia coli [11], 4 µg/mL (≈ 9.52 µM) with Bacillus subtilis [12], 5 µg/mL (≈ 11.9 µM) with Staphylococcus aureus [13] and 6 µg/mL (≈ 14.3 µM) with Salmonella typhimurium.
On to `Cc1nc2scc(-c3ccco3)c2c(=O)n1/N=C/c1ccc([N+](=O)[O-])cc1`, for which the MIC in the experiment with Escherichia coli [11] was found to be 12 µg/mL (≈ 31.5 µM); with Bacillus subtilis [12] it was 11 µg/mL (≈ 28.9 µM); in the experiment on Staphylococcus aureus [13], 11 µg/mL (≈ 28.9 µM); with Salmonella typhimurium it was 12 µg/mL (≈ 31.5 µM).
`COc1cc(-c2cc(-c3cc(F)c(Cl)cc3Cl)nc(NC(=O)CSc3nnc(-c4cccnc4N4CCOCC4)o3)n2)cc(OC)c1OC`: the figures for the zone of inhibition at 50 µg/mL in the experiment with Staphylococcus aureus [14] and in the experiment with Escherichia coli [15] were 9 mm and 14 mm, respectively.
In the case of `O=C1OC(c2ccc(C(=O)O)cc2)N=C1/C=C/c1ccc(C(=O)c2ccccc2)cc1` (stereo not given), the zone of inhibition at 50 µg/mL in the experiment on Escherichia coli [4] is 17 mm; in the experiment with Streptococcus pneumoniae it was 19.3 mm; in the experiment with Bacillus subtilis [5] it was 23.7 mm.
Take `Cc1nc2scc(-c3ccco3)c2c(=O)n1NC(=O)c1ccc(F)cc1F`: the MIC worked out at 4 µg/mL (≈ 10.3 µM) with Escherichia coli [11], 5 µg/mL (≈ 12.9 µM) with Bacillus subtilis [12], 4 µg/mL (≈ 10.3 µM) in the experiment on Staphylococcus aureus [13] and 5 µg/mL (≈ 12.9 µM) in the experiment with Salmonella typhimurium.
For `CCn1cc(C(=O)O)c(=O)c2cc(F)c(N3CCNCC3)cc21` [NORFLOXACIN], the MIC with Streptococcus pyogenes, in the experiment on Escherichia coli [1], with Pseudomonas aeruginosa [2] and with Staphylococcus aureus [3] was 10 µg/mL in each case.
On to `Oc1ccccc1/C=N/Nc1nc(SCc2ccccc2)ncc1I`, for which the “inhibition zone (IZ)” value is recorded as 18 mm in the experiment on Pseudomonas aeruginosa [16], 15 mm in the experiment on Staphylococcus aureus [17], 13 mm with Bacillus subtilis [18] and 7 mm in the experiment on Escherichia coli [19].
For the compound `Cc1nc2scc(-c3ccco3)c2c(=O)n1/N=C/c1ccc(F)cc1F`, the MIC is 5 µg/mL (≈ 13.5 µM) with Escherichia coli [11], 4 µg/mL (≈ 10.8 µM) with Bacillus subtilis [12], 5 µg/mL (≈ 13.5 µM) with Staphylococcus aureus [13] and 6 µg/mL (≈ 16.2 µM) in the experiment on Salmonella typhimurium.
In the case of `COc1ccc(-c2cc(-c3ccc(Oc4ccccc4)cc3)nc(SCC(=O)Nc3nc4ccc(S(=O)(=O)O)cc4s3)n2)cc1`, the MIC stood at 100 µg/mL with Streptococcus pyogenes, 62.5 µg/mL with Escherichia coli [1], 50 µg/mL in the experiment with Pseudomonas aeruginosa [2] and 100 µg/mL with Staphylococcus aureus [3].
Consider `CN[C@@H]1[C@H](O[C@H]2[C@H](O[C@H]3[C@H](O)[C@@H](O)[C@H](N=C(N)N)[C@@H](O)[C@@H]3N=C(N)N)O[C@@H](C)[C@]2(O)C=O)O[C@@H](CO)[C@H](O)[C@H]1O` [STREPTOMYCIN], for which, in the experiment with Serratia marcescens, the zone of inhibition at 20 µg/mL is 18 mm. Also, the zone of inhibition at 20000 µg/mL with Bacillus subtilis [6], in the experiment with Staphylococcus aureus [7], in the experiment on Sarcina and with Escherichia coli [8] was 18 mm throughout.
